{
  "source": "patent US9333208B2",
  "about": "“HCN inhibitors affecting ganglion cell function and visual function” (Allergan, Inc., priority 2013, dated 2016)",
  "key": {"HCN channel current (Ih)": {"test_system": "HCN channel current (Ih)", "assay": "HCN channel current (Ih) measurement, voltage clamp of retinal ganglion cells", "assay_type": "cell-based, Brown Norway rats", "conditions": "different concentrations; clamped at -60 mV, stepped to -80, -100 and -120 mV for 1 second; FIG. 11"}, "retinal ganglion cells": {"test_system": "retinal ganglion cells", "assay": "Retinal ganglion cell input resistance measurement, voltage clamp", "assay_type": "cell-based, Brown Norway rats", "conditions": "different concentrations; clamped at -60 mV, stepped to -55 mV; FIG. 12"}},
  "data": [
    {"smiles": "COc1cc2c(cc1OC)CC(=O)N(CCCN(C)C[C@H]1Cc3cc(OC)c(OC)cc31)CC2", "note": "[Ivabradine, 3-[3-({[(7S)-3,4-dimethoxybicyclo[4.2.0]octa-1,3,5-trien-7-yl]methyl}(methyl)amino)propyl]-7,8-dimethoxy-2,3,4,5-tetrahydro-1H-3-benzazepin-2-one]", "values": [
      {"measurement": "retinal ganglion cell HCN (Ih) mediated current", "setting": "HCN channel current (Ih)", "value": "statistically significant decrease"},
      {"measurement": "retinal ganglion cell input resistance", "setting": "retinal ganglion cells", "value": "increased with every concentration of Ivabradine in a linear manner"}
    ]}
  ]
}
